Source: publication PMC12216609, “Inhibitors of eIF1A-ribosome interaction unveil uORF-dependent regulation of translation initiation and antitumor and antiviral effects” (The EMBO Journal, 2025)
Values joined by “and” are separate entries in the source; they are usually repeats but may differ in a detail not shown here. Identical values can stand only once. Like-named read-outs stand apart in the source and are kept apart here.

What was measured:
eIF1A-RPS10 interaction = biological target: T1, eIF1A-RPS10 interaction (Homo sapiens, UniProt P46783+P47813); assay: Split-Renilla luciferase eIF1A-RPS10 interaction screen, dose-response; assay type: biochemical; settings: summary table; read-out: IC50 concentration (µM), IC50 screen
T1 construct: made in house; host or cells: E. coli BL21 (PRSFduet); unpurified lysate supernatant
T1 sequence (P47813 whole entry, one chain of several): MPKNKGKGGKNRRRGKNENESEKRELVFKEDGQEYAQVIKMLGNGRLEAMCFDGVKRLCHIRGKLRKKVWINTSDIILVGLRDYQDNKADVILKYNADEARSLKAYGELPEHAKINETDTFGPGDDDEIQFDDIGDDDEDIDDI
Method in brief: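 Recombinant split-luciferase fusions were produced bacterially, lysed by sonication in TKE buffer and the cleared supernatants tested for Renilla activity. Compounds, held as 10 mM DMSO stocks, were then assayed for interference with the reconstituted signal, with unfused Renilla halves run as controls.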

NSP1 = NSP1 (Severe acute respiratory syndrome coronavirus 2, UniProt P0DTD1)
eIF1A = biological target: T2, eIF1A (Homo sapiens, UniProt P47813); assay type: binding; settings: for fluorescence ratio, eIF1A: background-corrected, relative to DMSO or lowest 1Ai concentration, replicate columns
T2 construct: His-bdSUMO (cleaved yes); made in house; host or cells: E. coli BL-21
T2 sequence (P47813 whole entry): as the sequence (P47813 whole entry, one chain of several) above

[1] = tested on: IRF7 5'UTR firefly luciferase reporter in HEK293T cells; settings: for Reference vs IRF7 (Final data, Fig. 1E): 1/Result, relative to DMSO; for LONG (summary - All), normalized to DMSO / SHORT (summary - All), normalized to DMSO: individual replicates, outliers excluded, DMSO = 1; for SHORT (summary - All), normalized to DMSO: Short reporter; for Long 5'UTR reporter luciferase activity, normalized to DMSO (=1), single replicates: compound at 20 µM, left data block (Long), source data of Fig 1C; for average ( long vs short ratio): summary - All;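 as to all read-outs here: luciferase signal corrected by a co-transfected GFP reporter for transfection efficiency, read after overnight compound exposure, with Long and Short reporters differing in 5'UTR length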
[2] = tested on: cap-proximal AUG GFP reporter in HEK293T cells; assay type: cell-based; settings: GFP WB densitometry; 20 µM overnight; dmso 0.965946;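 also: ratio of upstream to downstream AUG initiation products on GFP Western blot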
RPS10 = biological target: T3, RPS10 (Homo sapiens, UniProt P46783); assay type: binding; settings: for RPS10 IC50: fluorescence binding
T3 construct: made in house; host or cells: E. coli BL-21

[3] = eIF1A, from the titration data, read-out: IC50 (eIF1A titration block)
[4] = summary table, fluorescence binding assay, read-out: IC50 concentration (µM), WT eIF1A
[5] = summary table, fluorescence binding assay
[6] = read-out: IC50 (line under RPS10 binding data)
[7] = summary table, fluorescence binding assay, read-out: IC50 concentration (µM), RPS10

| Compound | IC50 (eIF1A-RPS10 interaction) [µM] | GFP reporter ratio nsp1/gfp, avg (NSP1) | GFP reporter ratio nsp1/gfp, rep 1 (NSP1) | gfp signal, mean of duplicate wells (NSP1) | nsp1 signal, mean of duplicate wells (NSP1) | ratio (nsp1/gfp) (NSP1) | fluorescence ratio, eIF1A (eIF1A; 1Ai conc. 0.25 uM) | fluorescence ratio, eIF1A (eIF1A; 1Ai conc. 0.5 uM) | fluorescence ratio, eIF1A (eIF1A; 1Ai conc. 1 uM) | fluorescence ratio, eIF1A (eIF1A; 1Ai conc. 2 uM) | fluorescence ratio, eIF1A (eIF1A; 1Ai conc. 4 uM) | fluorescence ratio, eIF1A (eIF1A; 1Ai conc. 8 uM) | fluorescence ratio, eIF1A (eIF1A; 1Ai conc. 16 uM) | fluorescence ratio, eIF1A (eIF1A; 1Ai conc. 32 uM) | fluorescence ratio, eIF1A (eIF1A; 1Ai conc. 64 uM) | fluorescence ratio, eIF1A (eIF1A; 1Ai conc. 256 uM) | Reference vs IRF7 (Final data, Fig. 1E) ([1]; 20 µM) | LONG (summary - All), normalized to DMSO ([1]; Long reporter, 20 µM) | SHORT (summary - All), normalized to DMSO ([1]; 20 µM) | average ( long vs short ratio) ([1]; 20 µM) | further results |
| --- | --- | --- | --- | --- | --- | --- | --- | --- | --- | --- | --- | --- | --- | --- | --- | --- | --- | --- | --- | --- | --- |
| CN1CCN(S(=O)(=O)c2ccc(N3Cc4cc5c(cc4C4(CCCC4)C3)OCCO5)nc2)CC1 [1Ai-3564] | 15 | 0.5007 | 0.5007 | 362.5 | 181.5 | 0.501 | 1.044 and 1 | 1.089 and 1.095 | 1.239 and 0.9891 | 1.143 and 0.9513 | 1.209 and 0.9045 | 1.156 and 0.8599 | 1.357 and 1.021 | 1.557 and 1.107 | 1.6 and 1.164 | 1.73 and 1.413 | 1.762 | 0.26 and 0.60 and 0.49 and 0.43 and 0.25 | 0.54 and 0.80 and 0.85 and 0.72 and 0.67 | 0.568 | IC50 (eIF1A; [3]): 35.2 µM; IC50 (eIF1A; [4]): 35.3 µM; Long 5'UTR reporter luciferase activity, normalized to DMSO (=1), single replicates [1]: 0.261 and 0.6001 and 0.4877 and 0.4313 and 0.2492; US/DS ratio, average [2]: 0.4649; RPS10 fluorescence ratio to control (RPS10; 1Ai conc. 0.25 uM): 1; RPS10 fluorescence ratio to control (RPS10; 1Ai conc. 0.5 uM): 0.8515; RPS10 fluorescence ratio to control (RPS10; 1Ai conc. 1 uM): 0.9657; RPS10 fluorescence ratio to control (RPS10; 1Ai conc. 2 uM): 0.9853; RPS10 fluorescence ratio to control (RPS10; 1Ai conc. 4 uM): 0.8932; RPS10 fluorescence ratio to control (RPS10; 1Ai conc. 8 uM): 0.9434; RPS10 fluorescence ratio to control (RPS10; 1Ai conc. 16 uM): 0.942; RPS10 fluorescence ratio to control (RPS10; 1Ai conc. 32 uM): 1; RPS10 fluorescence ratio to control (RPS10; 1Ai conc. 64 uM): 1.142; RPS10 fluorescence ratio to control (RPS10; 1Ai conc. 256 uM): 1.206; RPS10 IC50 (RPS10): No binding; IC50 concentration (µM), RPS10 (RPS10; [5]): No binding |
| O=C(COc1ccccc1[N+](=O)[O-])NCc1ccc(-c2ccc(Br)cc2)o1 [1Ai-4700] | 11 | 0.4331 | 0.4284 | 2716 and 2411 and 2645 | 1163.5 and 1055.5 and 1429.5 | 0.428 and 0.438 and 0.540 | 1.051 and 0.9016 | 1.104 and 0.9037 | 1.126 and 0.8562 | 1.098 and 0.832 | 1.037 and 0.7686 | 0.8525 and 0.6514 | 0.7753 and 0.6291 | 0.583 and 0.5184 | 0.4409 and 0.3702 | 0.3305 and 0.2635 | 2.452 | 0.84 and 0.38 and 0.21 and 0.60 | 1.10 and 0.65 and 2.34 and 0.87 | 0.408 | GFP reporter ratio nsp1/gfp, rep 2 (NSP1): 0.4378; IC50 (eIF1A; [3]): 20.9 µM; IC50 (eIF1A; [4]): 20.9 µM; US/DS ratio, average [2]: 0.7947; RPS10 fluorescence ratio to control (RPS10; 1Ai conc. 0.25 uM): 1; RPS10 fluorescence ratio to control (RPS10; 1Ai conc. 0.5 uM): 0.9948; RPS10 fluorescence ratio to control (RPS10; 1Ai conc. 1 uM): 1.113; RPS10 fluorescence ratio to control (RPS10; 1Ai conc. 2 uM): 1.071; RPS10 fluorescence ratio to control (RPS10; 1Ai conc. 4 uM): 0.9943; RPS10 fluorescence ratio to control (RPS10; 1Ai conc. 8 uM): 0.904; RPS10 fluorescence ratio to control (RPS10; 1Ai conc. 16 uM): 0.762; RPS10 fluorescence ratio to control (RPS10; 1Ai conc. 32 uM): 0.6123; RPS10 fluorescence ratio to control (RPS10; 1Ai conc. 64 uM): 0.5202; RPS10 fluorescence ratio to control (RPS10; 1Ai conc. 256 uM): 0.4416; IC50 (RPS10; [6]): 4.9 µM; IC50 (RPS10; read-out: RPS10 IC50): 4.9 µM; IC50 (RPS10; [7]): 4.9 µM |
| O=C(C=Cc1ccc(Cl)s1)Nc1cccc2ncccc12 [1Ai-4860] | 23 | 0.4044 | 0.428 | 2781.5 and 4263 | 1059 and 1824.5 | 0.381 and 0.428 | 1.378 and 0.7463 | 1.41 and 0.8167 | 1.444 and 0.7972 | 1.487 and 1.19 | 1.443 and 1.135 | 0.951 and 1.007 | 1.0935 and 0.6993 | 1.055 and 0.7323 | 1.155 and 0.874 | 1.071 and 0.7793 | 1.848 | 0.47 and 0.69 and 0.42 and 0.61 | 0.84 and 1.62 and 0.77 | 0.541 | GFP reporter ratio nsp1/gfp, rep 2 (NSP1): 0.3807; WT eIF1A IC50 (eIF1A; fluorescence binding): No binding; IC50 concentration (µM), WT eIF1A (eIF1A; [5]): No binding; Long: Normalized to average DMSO ([1]; data section, Long reporter, GFP-corrected, 20 µM, per experiment, includes values excluded as outliers): 0.471 and 0.6925 and 0.4245 and 0.6135; US/DS ratio, average [2]: 1.03; RPS10 fluorescence ratio to control (RPS10; 1Ai conc. 0.25 uM): 0.9517; RPS10 fluorescence ratio to control (RPS10; 1Ai conc. 0.5 uM): 0.9517; RPS10 fluorescence ratio to control (RPS10; 1Ai conc. 1 uM): 0.8947; RPS10 fluorescence ratio to control (RPS10; 1Ai conc. 2 uM): 0.9408; RPS10 fluorescence ratio to control (RPS10; 1Ai conc. 4 uM): 0.8788; RPS10 fluorescence ratio to control (RPS10; 1Ai conc. 8 uM): 0.814; RPS10 fluorescence ratio to control (RPS10; 1Ai conc. 16 uM): 0.7263; RPS10 fluorescence ratio to control (RPS10; 1Ai conc. 32 uM): 0.7395; RPS10 fluorescence ratio to control (RPS10; 1Ai conc. 64 uM): 0.7335; RPS10 fluorescence ratio to control (RPS10; 1Ai conc. 256 uM): 0.5649; RPS10 IC50 (RPS10): No binding; IC50 concentration (µM), RPS10 (RPS10; [5]): No binding |
| Cc1ccc(C(=O)c2cc(O)c(O)c([N+](=O)[O-])c2)cc1 [1Ai-5576] | 24 | 0.4237 | 0.4237 | 2857 | 1210.5 | 0.424 | 0.7537 and 0.6505 | 0.6672 and 0.6249 | 0.6232 and 0.5058 | 0.6427 and 0.4189 | 0.6101 and 0.3891 | 0.5237 and 0.3506 | 0.4763 and 0.3127 | 0.3344 and 0.3594 | 0.3785 and 0.2952 | 0.2822 and 0.2602 | 1.896 | 0.11 and 0.20 and 0.17 | 0.23 and 0.53 and 0.25 and 0.22 | 0.527 | IC50 (eIF1A; [3]): 0.926 µM; IC50 (eIF1A; [4]): 0.9 µM; Long 5'UTR reporter luciferase activity, normalized to DMSO (=1), single replicates [1]: 0.1126 and 0.2 and 0.1668 and 0.166; US/DS ratio, average [2]: 0.8188; RPS10 fluorescence ratio to control (RPS10; 1Ai conc. 0.25 uM): 1.2176; RPS10 fluorescence ratio to control (RPS10; 1Ai conc. 0.5 uM): 1.045; RPS10 fluorescence ratio to control (RPS10; 1Ai conc. 1 uM): 1.349; RPS10 fluorescence ratio to control (RPS10; 1Ai conc. 2 uM): 1.319; RPS10 fluorescence ratio to control (RPS10; 1Ai conc. 4 uM): 1.348; RPS10 fluorescence ratio to control (RPS10; 1Ai conc. 8 uM): 0.4488; RPS10 fluorescence ratio to control (RPS10; 1Ai conc. 16 uM): 0.3698; RPS10 fluorescence ratio to control (RPS10; 1Ai conc. 32 uM): 0.4065; RPS10 fluorescence ratio to control (RPS10; 1Ai conc. 64 uM): 0.1627; RPS10 fluorescence ratio to control (RPS10; 1Ai conc. 256 uM): 0.3279; IC50 (RPS10; [6]): 7.4 µM; IC50 (RPS10; read-out: RPS10 IC50): 7.4 µM; IC50 (RPS10; [7]): 7.4 µM |
